Laboratory results as given in patent US12649746B2, “Ketorolaco derivative, pharmaceutical composition and preparation method therefor and use thereof” (NANJING HERON PHARMACEUTICAL SCIENCE AND TECHNOLOGY CO., …, priority 2020, dated 2026).
Each block holds one molecule with its values, some of them ahead of it.

Assays:
[1] = By-product toxicity test (metabolic byproducts in the human body); conditions: by the metabolic pathways of the compounds in the human body
[2] = High temperature stability study of compounds (60° C.); format: physicochemical; conditions: in the dark; for Ketorolac (%): related substance
Protocol: Test protocol: the compounds prepared in the present disclosure were placed in a colorless and transparent vial, placed in the dark at a high temperature (60° C.), and were sampled for day 0, day 5 and day 10, respectively, and the purity of the compounds and the change of the related substance (ketorolac) were determined.

[3] = Stability study of levorotatory enantiomer of compounds in solvent (MCT); format: physicochemical; conditions: MCT solution; for Isomer (%): dextrorotatory form
Protocol: 2. Test method: the samples were prepared according to Table 2, wherein each sample was dispensed into 10 vials according to the lofting volume, and the samples were lofted according to Table 3.
4. The related substance was determined according to high performance liquid chromatography (General Chapter 0512, China Pharmacopoeia, 2015 Edition).
(1) Chromatographic conditions: the chromatography column was Agilent ZORBAX SB-C8, 4.6 mm×250 mm, 5 μm, and 0.1% phosphoric acid solution-acetonitrile (50:50) was used as a mobile phase; the detection wavelength was […]; the flow rate was 1.0 mL/min; the column temperature was 40° C., and linear gradient elution was performed according to the following table;
(§1) (2) Determination method: an appropriate amount of the product was weighed precisely, a diluent (absolute ethanol) was added and shaken to dissolve, and quantitatively diluted to give a solution containing 0.4 mg per 1 mL, the solution was […] by vortex for 30 s, and filtered with PTFE filter membrane (0.22 μm, JINTENG), and the filtrate was collected as a test sample solution. 10 μL of the solution was weighed precisely and injected into a liquid chromatograph, and a chromatogram was recorded; if an impurity peak existed in the chromatogram of the test sample solution, calculation was performed according to a peak area normalization method to give the target product.
5. Isomer determination was performed according to high performance liquid chromatography (General Chapter 0512, China Pharmacopoeia, 2015 Edition).
(1) Chromatographic conditions: cellulose-tris(3,5-dimethylphenylcarbamate)silica gel was used as filler (Chiralcel OD-H, 250×4.6 mm, 5 μm); n-hexane-isopropanol (90:10) was used as a mobile phase, and isocratic elution was performed for 25 min at a flow rate of 1.0 mL/min; the column temperature was 35° C.; the detection wavelength was 310 nm.
as §1, with “(n-hexane-isopropanol (90:10))” for “(absolute ethanol)”, “about 1.0” for “0.4”, “20” for “10”, “isomer” for “impurity”

SMILES: CC(OC(=O)C(C)C)OC(=O)C1CCn2c(C(=O)c3ccccc3)ccc21 (stereo not shown) [N6]
- Metabolic by-products in human body [1]: Acetaldehyde and isobutyric acid
- Total main peak purity (%) ([2]; Day 0): 91.56%
- Total main peak purity (%) ([2]; Day 5): 90.94%
- Total main peak purity (%) ([2]; Day 10): 90.22%
- Ketorolac (%) ([2]; Day 0): 0.14%
- Ketorolac (%) ([2]; Day 5): 0.13%
- Ketorolac (%) ([2]; Day 10): 0.17%

- Ketorolac (%) ([3]; 5° C., Day 5): 0.02%
- Purity (%) ([3]; 5° C., Day 5): 99.62%
- Ketorolac (%) ([3]; 5° C., Day 15): 0.02%
- Purity (%) ([3]; 5° C., Day 15): 99.64%
- Ketorolac (%) ([3]; 5° C., Day 30): 0.03%
- Purity (%) ([3]; 5° C., Day 30): 99.55%
- Ketorolac (%) ([3]; 5° C., day 0): 0.02%
- Purity (%) ([3]; 5° C., day 0): 99.65%
- Ketorolac (%) ([3]; 25° C., Day 5): 0.03%
- Purity (%) ([3]; 25° C., Day 5): 99.59%
- Ketorolac (%) ([3]; 25° C., Day 15): 0.04%
- Purity (%) ([3]; 25° C., Day 15): 99.61%
- Ketorolac (%) ([3]; 25° C., Day 30): 0.07%
- Purity (%) ([3]; 25° C., Day 30): 99.49%
- Ketorolac (%) ([3]; 25° C., day 0): 0.02%
- Purity (%) ([3]; 25° C., day 0): 99.65%
- Ketorolac (%) ([3]; 60° C., Day 5): 0.09%
- Purity (%) ([3]; 60° C., Day 5): 99.53%
- Ketorolac (%) ([3]; 60° C., Day 15): 0.23%
- Purity (%) ([3]; 60° C., Day 15): 99.35%
- Ketorolac (%) ([3]; 60° C., Day 30): 0.41%
- Purity (%) ([3]; 60° C., Day 30): 99.05%
- Ketorolac (%) ([3]; 60° C., day 0): 0.02%
- Purity (%) ([3]; 60° C., day 0): 99.65%
- Isomer (%) ([3]; 5° C., Day 5): 3.05%
- Isomer (%) ([3]; 5° C., Day 15): 3.07%
- Isomer (%) ([3]; 5° C., Day 30): 3.06%
- Isomer (%) ([3]; 5° C., day 0): 3.01%
- Isomer (%) ([3]; 25° C., Day 5): 3.04%
- Isomer (%) ([3]; 25° C., Day 15): 3.09%
- Isomer (%) ([3]; 25° C., Day 30): 3.11%
- Isomer (%) ([3]; 25° C., day 0): 3.01%
- Isomer (%) ([3]; 60° C., Day 5): 3.12%
- Isomer (%) ([3]; 60° C., Day 15): 3.1%
- Isomer (%) ([3]; 60° C., Day 30): 3.48%
- Isomer (%) ([3]; 60° C., day 0): 3.01%
SMILES: CCOC(=O)OC(C)OC(=O)[C@H]1CCn2c(C(=O)c3ccccc3)ccc21 (stereo partly drawn) [N12(S)]

- Ketorolac (%) ([3]; 5° C., Day 5): 0.02%
- Purity (%) ([3]; 5° C., Day 5): 99.46%
- Ketorolac (%) ([3]; 5° C., Day 15): 0.02%
- Purity (%) ([3]; 5° C., Day 15): 99.45%
- Ketorolac (%) ([3]; 5° C., Day 30): 0.03%
- Purity (%) ([3]; 5° C., Day 30): 99.38%
- Ketorolac (%) ([3]; 5° C., day 0): 0.03%
- Purity (%) ([3]; 5° C., day 0): 99.48%
- Ketorolac (%) ([3]; 25° C., Day 5): 0.03%
- Purity (%) ([3]; 25° C., Day 5): 99.42%
- Ketorolac (%) ([3]; 25° C., Day 15): 0.03%
- Purity (%) ([3]; 25° C., Day 15): 99.41%
- Ketorolac (%) ([3]; 25° C., Day 30): 0.05%
- Purity (%) ([3]; 25° C., Day 30): 99.33%
- Ketorolac (%) ([3]; 25° C., day 0): 0.03%
- Purity (%) ([3]; 25° C., day 0): 99.48%
- Ketorolac (%) ([3]; 60° C., Day 5): 0.06%
- Purity (%) ([3]; 60° C., Day 5): 99.35%
- Ketorolac (%) ([3]; 60° C., Day 15): 0.17%
- Purity (%) ([3]; 60° C., Day 15): 99.21%
- Ketorolac (%) ([3]; 60° C., Day 30): 0.35%
- Purity (%) ([3]; 60° C., Day 30): 98.92%
- Ketorolac (%) ([3]; 60° C., day 0): 0.03%
- Purity (%) ([3]; 60° C., day 0): 99.48%
- Isomer (%) ([3]; 5° C., Day 5): 4.58%
- Isomer (%) ([3]; 5° C., Day 15): 4.73%
- Isomer (%) ([3]; 5° C., Day 30): 4.62%
- Isomer (%) ([3]; 5° C., day 0): 4.59%
- Isomer (%) ([3]; 25° C., Day 5): 4.58%
- Isomer (%) ([3]; 25° C., Day 15): 4.72%
- Isomer (%) ([3]; 25° C., Day 30): 4.64%
- Isomer (%) ([3]; 25° C., day 0): 4.59%
- Isomer (%) ([3]; 60° C., Day 5): 4.59%
- Isomer (%) ([3]; 60° C., Day 15): 4.75%
- Isomer (%) ([3]; 60° C., Day 30): 4.63%
- Isomer (%) ([3]; 60° C., day 0): 4.59%
SMILES: CCOC(=O)OC(CC)OC(=O)[C@H]1CCn2c(C(=O)c3ccccc3)ccc21 (stereo partly drawn) [N15(S)]

- Total main peak purity (%) ([2]; Day 0): 96.21%
- Total main peak purity (%) ([2]; Day 5): 95.58%
- Total main peak purity (%) ([2]; Day 10): 95.21%
- Ketorolac (%) ([2]; Day 0): 0.29%
- Ketorolac (%) ([2]; Day 5): 0.31%
- Ketorolac (%) ([2]; Day 10): 0.30%
SMILES: CCC(=O)OC(OC(=O)C1CCn2c(C(=O)c3ccccc3)ccc21)C(C)C (stereo not shown) [N9]

- Ketorolac (%) ([3]; 5° C., Day 5): 0.2%
- Purity (%) ([3]; 5° C., Day 5): 99.08%
- Ketorolac (%) ([3]; 5° C., Day 15): 0.14%
- Purity (%) ([3]; 5° C., Day 15): 99.18%
- Ketorolac (%) ([3]; 5° C., Day 30): 0.25%
- Purity (%) ([3]; 5° C., Day 30): 99.01%
- Ketorolac (%) ([3]; 5° C., day 0): 0.16%
- Purity (%) ([3]; 5° C., day 0): 99.14%
- Ketorolac (%) ([3]; 25° C., Day 5): 0.21%
- Purity (%) ([3]; 25° C., Day 5): 99.08%
- Ketorolac (%) ([3]; 25° C., Day 15): 0.17%
- Purity (%) ([3]; 25° C., Day 15): 99.13%
- Ketorolac (%) ([3]; 25° C., Day 30): 0.28%
- Purity (%) ([3]; 25° C., Day 30): 98.95%
- Ketorolac (%) ([3]; 25° C., day 0): 0.16%
- Purity (%) ([3]; 25° C., day 0): 99.14%
- Ketorolac (%) ([3]; 60° C., Day 5): 0.3%
- Purity (%) ([3]; 60° C., Day 5): 98.92%
- Ketorolac (%) ([3]; 60° C., Day 15): 0.49%
- Purity (%) ([3]; 60° C., Day 15): 98.67%
- Ketorolac (%) ([3]; 60° C., Day 30): 0.65%
- Purity (%) ([3]; 60° C., Day 30): 98.38%
- Ketorolac (%) ([3]; 60° C., day 0): 0.16%
- Purity (%) ([3]; 60° C., day 0): 99.14%
- Isomer (%) ([3]; 5° C., Day 5): 5.63%
- Isomer (%) ([3]; 5° C., Day 15): 5.87%
- Isomer (%) ([3]; 5° C., Day 30): 5.99%
- Isomer (%) ([3]; 5° C., day 0): 5.65%
- Isomer (%) ([3]; 25° C., Day 5): 5.66%
- Isomer (%) ([3]; 25° C., Day 15): 5.86%
- Isomer (%) ([3]; 25° C., Day 30): 6.01%
- Isomer (%) ([3]; 25° C., day 0): 5.65%
- Isomer (%) ([3]; 60° C., Day 5): 5.7%
- Isomer (%) ([3]; 60° C., Day 15): 5.89%
- Isomer (%) ([3]; 60° C., Day 30): 6.13%
- Isomer (%) ([3]; 60° C., day 0): 5.65%
SMILES: CC(C)OC(=O)OC(C)OC(=O)[C@H]1CCn2c(C(=O)c3ccccc3)ccc21 (stereo partly drawn) [N2(S)]

SMILES: CCOC(=O)OC(OC(=O)C1CCn2c(C(=O)c3ccccc3)ccc21)C(C)C (stereo not shown) [N18]
- Total main peak purity (%) ([2]; Day 0): 94.25%
- Total main peak purity (%) ([2]; Day 5): 92.10%
- Total main peak purity (%) ([2]; Day 10): 91.78%
- Ketorolac (%) ([2]; Day 0): 0.06%
- Ketorolac (%) ([2]; Day 5): 0.18%
- Ketorolac (%) ([2]; Day 10): 0.26%
